According to patent US20250332298A1, “PEPTIDE-COUPLED ALGINATE GELS COMPRISING RADIONUCLIDES” (BLUE WAVE THERAPEUTICS GMBH, priority 2021, published 2025):
Several values for one entry are separate records, joined by “and”; a condition that tells them apart may be missing. Equal values may be shown once.

Key:
[1] = Binding efficiency of thorium-227 and its decay daughters to preformed alginate microspheres (calcium cross-linked); assay type: physicochemical; conditions: for Bound at 1 h, Bq: 227Th4+ solution in NaCl; for Bound at 1 h, Bq / Bound at 1 h, %: 1 h incubation; for Bound at 2 h, Bq / Bound at 2 h, %: 2 h incubation; for Bound at 1 h, % / Bound at 2 h, %: % of available radioactivity
Method: In this Experiment, binding of a tetravalent radionuclide cation to alginate microspheres was studied.
Calcium crosslinked, inhomogeneous gelled alginate microspheres were made in the same manner as shown in Example 5 above. The microspheres were washed three times using 0.9% NaCl solution, resuspended in 0.8% NaCl and incubated with a solution of ^227Th^4+. Of the available amount of radioactivity, approximately 30% bound to the pre-formed alginate microspheres (Table 3).

[2] = Binding of radium-224 and decay daughters to calcium alginate microparticles and retention over 12 days; conditions: for Day 0 particles directly after labelling, radioactivity: 30 mg microparticles, 30 min room temperature, washed, HPGe; for Day 1 radioactivity associated with particles: 24 hours after labelling; for Day 1 radioactivity associated with particles / Day 12 radioactivity associated with particles: room temperature, after washing with water; for Day 12 radioactivity associated with particles: 12 days after labelling; for Day 0 % bound radioactivity relative to available radioactivity: directly after labelling
Method: Calcium alginate was produced via the conversion of sodium alginate powder suspended in isopropyl alcohol by adding an aqueous solution of calcium chloride as exemplified in US 2011/0053886 incorporated herein.
A 30 mg sample of calcium alginate microparticles, having an average size distribution (DV50) of 13 μm, was resuspended first in 200 μl water, then 150 μl radium-224 solution was added followed by an additional 150 μl of water. The sample was vortex mixed then incubated at room temperature for 30 min. An aliquot of 500 μl water was added to the particle suspension. The sample was vortex mixed then centrifuged for 1 min at 6000 rpm. The supernatant was transferred to another Eppendorf tube labelled Wash 1. The particle sample was then resuspended in 1000 μl water, vortexed, then centrifuged. The supernatant was transferred to an Eppendorf tube labelled Wash 2. The wash with 1000 μl water was repeated and the supernatant collected to tube Wash 3. Samples were then analysed for radioactivity using a high purity germanium detector.
The sample was kept at room temperature and analysed again at day 1 (24 hours after labelling) and 12 days after labelling. Radioactivity was determined after first washing the particles with water.
This solution represents the available radioactivity, and radionuclides, added to calcium alginate microparticles. Following incubation and a wash to remove unbound radioactivity, the radioactivity associated with the alginate microparticles was again measured respective to each decay daughter radionuclide. The % bound radioactivity relative to the available radioactivity was calculated.
When the particles were washed on day 1 after labelling, and radioactivity determined (HPGe detector), in addition, the amount of 224-Ra radioactivity theoretically remaining associated with the alginate microparticles was calculated using an available radioactive decay calculator (http://www.radprocalculator.com).

| SMILES | Bound at 1 h, Bq [1] [Bq] | Bound at 2 h, Bq [1] [Bq] | Bound at 1 h, % [1] [%] | Bound at 2 h, % [1] [%] | Day 0 particles directly after labelling, radioactivity [2] | Day 1 radioactivity associated with particles [2] [Bq] | Day 12 radioactivity associated with particles [2] [Bq] | Day 0 % bound radioactivity relative to available radioactivity [2] [%] | other results |
| --- | --- | --- | --- | --- | --- | --- | --- | --- | --- |
| [211Bi] [Bismuth-211] | 10067 | 11154 | 90.2 | 99.9 | – | – | – | – | Bound at 1 h, % ([1]; listed as 211Bi): 100%; Bound at 1 h, % ([1]; listed as bismuth): 100% |
| [212Bi] [Formulation 212-Bi, bismuth 212] | – | – | – | – | 7640 Bq | 7650 | 910 | 83.6 | – |
| [212Pb] [Formulation 212-Pb, lead-212] | – | – | – | – | 8370 Bq | 7840 | 1040 | – | – |
| [224Ra] [Formulation 224-Ra, radium-224] | – | – | – | – | 8720 Bq and 8740 Bq | 7270 | 913 | 94.9 | Day 1 % radioactivity remaining bound relative to theoretical radioactivity following decay ([2]; Day 1): 100%; Day 12 % radioactivity remaining bound relative to theoretical radioactivity following decay ([2]; Day 12): 100% and 101% |
| [223Ra] [Radium-223] | 10512 | 11201 | 111.5 | 118.8 | – | – | – | – | Bound at 1 h, % ([1]; listed as 223Ra): 100%; Bound at 1 h, % ([1]; listed as radium): 100% |
| [227Th] [Thorium-227] | 24679 | 30647 | 30.4 | 37.7 | – | – | – | – | Bound at 1 h, % ([1]; listed as 227Th): approximately 30%; Bound at 1 h, % ([1]; listed as thorium-227): approximately 30% |
